From US20260265329A1, “POLYPEPTIDE AND DERIVATIVE THEREOF, COMPOSITION, AND USE THEREOF” (HANGZHOU SCIWIND BIOSCIENCES CO., LTD., priority 2023, published 2026) come the findings set out here.

Structures are written as SMILES. Starred links: 1 amine or outer side, 2 acyl side, 3 side chain; linkers in the order of their positions; H or OH if unused. Non-standard residues stand in square brackets, D forms with d. Residues, ends and D or L forms follow the SMILES beside them. ξ: configuration not given here. *: point of attachment. C20 diacid = O=C(O)CCCCCCCCCCCCCCCCCCC(=O)*; γGlu = O=C(O)[C@H](CCC(=O)[*:2])N[*:1]; Hyp = O=C(O)[C@@H]1C[C@@H](O)CN1; ξαMeN = CC(N)(CC(N)=O)C(=O)O; AEEA = NCCOCCOCC(=O)O; Inp = O=C(O)C1CCNCC1

This experiment has as its target T1, human amylin receptors (Homo sapiens, UniProt O60896+P30988).
T1 construct: host or cells: CHO-K1/Ga15/AMY3 cells, further stably transfected with a CRE-luciferase plasmid
T1 sequence (P30988 25-474): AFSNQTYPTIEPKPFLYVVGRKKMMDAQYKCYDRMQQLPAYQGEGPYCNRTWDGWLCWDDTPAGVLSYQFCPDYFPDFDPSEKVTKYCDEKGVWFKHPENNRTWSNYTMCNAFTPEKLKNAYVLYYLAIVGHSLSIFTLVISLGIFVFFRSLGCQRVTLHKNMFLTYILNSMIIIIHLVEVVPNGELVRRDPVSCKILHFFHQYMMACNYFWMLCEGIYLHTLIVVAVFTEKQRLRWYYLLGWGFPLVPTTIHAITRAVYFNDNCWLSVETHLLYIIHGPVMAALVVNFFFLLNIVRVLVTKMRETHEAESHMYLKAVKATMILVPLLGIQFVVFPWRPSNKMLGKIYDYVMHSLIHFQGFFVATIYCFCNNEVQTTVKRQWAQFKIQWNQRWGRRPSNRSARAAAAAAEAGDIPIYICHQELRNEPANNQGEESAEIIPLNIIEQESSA
T1 sequence (O60896 24-148 partner): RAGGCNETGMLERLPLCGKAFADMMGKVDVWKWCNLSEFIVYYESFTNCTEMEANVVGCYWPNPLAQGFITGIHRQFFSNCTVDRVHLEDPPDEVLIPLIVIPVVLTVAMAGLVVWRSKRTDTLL
Nature of the experiment: Luciferase assay in stably transfected amylin receptor/CRE-luc CHO cell line. Particulars: for Relative activity: EC50 ratio of Cagrilintide to the compound, Cagrilintide 100%; for EC50: amylin receptor/CRE-luc CHO cells, 24 hours incubation, luminescence. Format: cell-based. The text has this: The objective of this assay is to test the potency of derivatives of polypeptides of the present application on human amylin receptors in vitro using a luciferase assay. Using the standard protocol, CHO-K1/Ga15/AMY3 cells (purchased from GenScript, with the calcitonin receptor and the receptor activity modifying peptide (RAMP) constructed already) were transfected with a plasmid containing a luciferase expression cassette driven by multiple copies of cAMP response elements (CREs). The cells were cultured in an F12 medium containing 200 μg/mL Zeocin, 2 μg/mL puromycin, 100 μg/mL hygromycin, and 400 μg/mL G418 to afford a stably transfected amylin receptor/CRE-luc cell line. The lyophilized powder from Example 1 was dissolved in 20 mM phosphate buffer solution with a pH of 7.0, and diluted in a growth medium (F12 culture medium containing 10% FBS) to give a derivative sample with an initial concentration of 10 nM, which was then subjected to a 5-fold serial dilution in the growth medium to obtain seven samples with concentrations between […]. In each well of a white 96-well plate, 50 μL of the tested sample solution was added with a corresponding concentration. The stably transfected amylin receptor/CRE-luc CHO cells were resuspended in the growth medium at a certain density, and 50 μL of the cell suspension was added at a density of about 20000 cells per well to the white 96-well plate containing the tested sample solution. After incubation of 24 hours at 37° C. and 5% CO2, 100 μL of a Luciferase substrate was added to each well, incubated for 3 minutes, and finally was tested for luminescence on SpectraMax L (Molecular Devices) with the software SoftMax Pro 7.0.3 GxP.

Take `CC[C@H](C)[C@H](NC(=O)[C@H](CC(=O)O)NC(=O)[C@H](CCCNC(=N)N)NC(=O)[C@H](CC(=O)O)NC(=O)[C@H](CCCNC(=N)N)NC(=O)[C@H](CC(=O)O)NC(=O)[C@@H](NC(=O)[C@H](Cc1ccccc1)NC(=O)[C@H](Cc1c[nH]cn1)NC(=O)[C@H](CCCNC(=N)N)NC(=O)[C@H](CC(C)C)NC(=O)[C@H](Cc1ccccc1)NC(=O)[C@H](CC(=O)O)NC(=O)[C@H](C)NC(=O)[C@H](CC(C)C)NC(=O)[C@H](CCCNC(=N)N)NC(=O)[C@H](CCC(N)=O)NC(=O)[C@@H](NC(=O)[C@H](C)NC(=O)[C@H](C)NC(=O)[C@@H](NC(=O)[C@H](CO)NC(=O)[C@H](CC(C)C)NC(=O)[C@H](CCC(N)=O)NC(=O)[C@H](CO)NC(=O)[C@H](C)NC(=O)C1CCN(C(=O)CCCCCCCCCCCCCCCCCCC(=O)O)CC1)[C@@H](C)O)[C@@H](C)O)[C@@H](C)O)C(=O)N[C@@H](CC(C)C)C(=O)N1CCC[C@H]1C(=O)N1CCC[C@H]1C(=O)N[C@H](C(=O)N[C@@H](CC(N)=O)C(=O)N[C@H](C(=O)NCC(=O)N[C@@H](CO)C(=O)N[C@@H](CC(N)=O)C(=O)N[C@H](C(=O)N1CCC[C@H]1C(N)=O)[C@@H](C)O)C(C)C)[C@@H](C)O` [M15] ({C20 diacid-Inp}-ASQLSTAATQRLADFLRHFTDRDRDILPPTNVGSNTP-NH2): the Relative activity is reported as 81% and the EC50 was determined as 0.03 nM. For the compound `CC[C@H](C)[C@H](NC(=O)[C@@H]1CCCN1C(=O)[C@H](CCCCN)NC(=O)[C@H](CC(C)C)NC(=O)[C@H](CC(N)=O)NC(=O)[C@H](CC(N)=O)NC(=O)[C@H](CO)NC(=O)[C@H](CO)NC(=O)[C@H](Cc1c[nH]cn1)NC(=O)[C@H](CCCNC(=N)N)NC(=O)[C@H](CC(C)C)NC(=O)[C@H](Cc1ccccc1)NC(=O)[C@H](CC(=O)O)NC(=O)[C@H](C)NC(=O)[C@H](CC(C)C)NC(=O)[C@H](CCCNC(=N)N)NC(=O)[C@H](CCC(N)=O)NC(=O)[C@@H](NC(=O)[C@H](C)NC(=O)[C@H](C)NC(=O)[C@@H](NC(=O)[C@H](CO)NC(=O)[C@H](CC(C)C)NC(=O)[C@H](CCC(N)=O)NC(=O)[C@H](CO)NC(=O)[C@H](C)NC(=O)[C@H](CCC(=O)O)NC(=O)CCCCCCCCCCCCCCCCCCC(=O)O)[C@@H](C)O)[C@@H](C)O)C(=O)N[C@@H](CC(C)C)C(=O)N1CCC[C@H]1C(=O)N1CCC[C@H]1C(=O)N[C@H](C(=O)N[C@@H](CC(N)=O)C(=O)N[C@H](C(=O)NCC(=O)N[C@@H](CO)C(=O)N[C@@H](CC(N)=O)C(=O)N[C@H](C(=O)N1C[C@H](O)C[C@H]1C(N)=O)[C@@H](C)O)C(C)C)[C@@H](C)O` [M26] ({C20 diacid}-EASQLSTAATQRLADFLRHSSNNLKPILPPTNVGSNT[Hyp]-NH2), the Relative activity was 103% and the EC50 is 0.049 nM. Take `CC[C@H](C)[C@H](NC(=O)[C@H](CC(=O)O)NC(=O)[C@H](CCCNC(=N)N)NC(=O)[C@H](CC(=O)O)NC(=O)[C@H](CCCNC(=N)N)NC(=O)[C@H](CC(=O)O)NC(=O)[C@@H](NC(=O)[C@H](Cc1ccccc1)NC(=O)[C@H](Cc1c[nH]cn1)NC(=O)[C@H](CCCNC(=N)N)NC(=O)[C@H](CC(C)C)NC(=O)[C@H](Cc1ccccc1)NC(=O)[C@H](CC(=O)O)NC(=O)[C@H](C)NC(=O)[C@H](CC(C)C)NC(=O)[C@H](CCCNC(=N)N)NC(=O)[C@H](CCC(N)=O)NC(=O)[C@@H](NC(=O)[C@H](C)NC(=O)[C@H](C)NC(=O)[C@@H](NC(=O)[C@H](CO)NC(=O)[C@H](CC(C)C)NC(=O)[C@H](CCC(N)=O)NC(=O)[C@H](CO)NC(=O)[C@H](C)NC(=O)COCCOCCNC(=O)COCCOCCNC(=O)COCCOCCNC(=O)COCCOCCNC(=O)CC[C@H](NC(=O)CCCCCCCCCCCCCCCCCCC(=O)O)C(=O)O)[C@@H](C)O)[C@@H](C)O)[C@@H](C)O)C(=O)N[C@@H](CC(C)C)C(=O)N1CCC[C@H]1C(=O)N1CCC[C@H]1C(=O)N[C@H](C(=O)N[C@@H](CC(N)=O)C(=O)N[C@H](C(=O)NCC(=O)N[C@@H](CO)C(=O)N[C@@H](CC(N)=O)C(=O)N[C@H](C(=O)N1CCC[C@H]1C(N)=O)[C@@H](C)O)C(C)C)[C@@H](C)O` [M24] ({C20 diacid-γGlu-AEEA-AEEA-AEEA-AEEA}-ASQLSTAATQRLADFLRHFTDRDRDILPPTNVGSNTP-NH2): the Relative activity was determined as 47% and the EC50 is 0.066 nM. For the compound `CC[C@H](C)[C@H](NC(=O)[C@H](CC(=O)O)NC(=O)[C@H](CCCNC(=N)N)NC(=O)[C@H](CC(=O)O)NC(=O)[C@H](CCCNC(=N)N)NC(=O)[C@H](CC(=O)O)NC(=O)[C@@H](NC(=O)[C@H](Cc1ccccc1)NC(=O)[C@H](Cc1c[nH]cn1)NC(=O)[C@H](CCCNC(=N)N)NC(=O)[C@H](CC(C)C)NC(=O)[C@H](Cc1ccccc1)NC(=O)[C@H](CC(=O)O)NC(=O)[C@H](C)NC(=O)[C@H](CC(C)C)NC(=O)[C@H](CCCNC(=N)N)NC(=O)[C@H](CCC(N)=O)NC(=O)[C@@H](NC(=O)[C@H](C)NC(=O)[C@H](C)NC(=O)[C@@H](NC(=O)[C@H](CO)NC(=O)[C@H](CC(C)C)NC(=O)[C@H](CCC(N)=O)NC(=O)[C@H](CO)NC(=O)[C@H](C)NC(=O)COCCOCCNC(=O)COCCOCCNC(=O)COCCOCCNC(=O)COCCOCCNC(=O)COCCOCCNC(=O)COCCOCCNC(=O)CC[C@H](NC(=O)CCCCCCCCCCCCCCCCCCC(=O)O)C(=O)O)[C@@H](C)O)[C@@H](C)O)[C@@H](C)O)C(=O)N[C@@H](CC(C)C)C(=O)N1CCC[C@H]1C(=O)N1CCC[C@H]1C(=O)N[C@H](C(=O)N[C@@H](CC(N)=O)C(=O)N[C@H](C(=O)NCC(=O)N[C@@H](CO)C(=O)N[C@@H](CC(N)=O)C(=O)N[C@H](C(=O)N1CCC[C@H]1C(N)=O)[C@@H](C)O)C(C)C)[C@@H](C)O` [M25] ({C20 diacid-γGlu-AEEA-AEEA-AEEA-AEEA-AEEA-AEEA}-ASQLSTAATQRLADFLRHFTDRDRDILPPTNVGSNTP-NH2), the Relative activity is recorded as 25%.

In the case of `CC[C@H](C)[C@H](NC(=O)[C@@H]1CCCN1C(=O)[C@H](CCCCN)NC(=O)[C@H](CC(C)C)NC(=O)C(C)(CC(N)=O)NC(=O)[C@H](CC(N)=O)NC(=O)[C@H](CO)NC(=O)[C@H](CO)NC(=O)[C@H](Cc1c[nH]cn1)NC(=O)[C@H](CCCNC(=N)N)NC(=O)[C@H](CC(C)C)NC(=O)[C@H](Cc1ccccc1)NC(=O)[C@H](CC(=O)O)NC(=O)[C@H](C)NC(=O)[C@H](CC(C)C)NC(=O)[C@H](CCCNC(=N)N)NC(=O)[C@H](CCC(N)=O)NC(=O)[C@@H](NC(=O)[C@H](C)NC(=O)[C@H](C)NC(=O)[C@@H](NC(=O)[C@H](CO)NC(=O)[C@H](CC(C)C)NC(=O)[C@H](CCC(N)=O)NC(=O)[C@H](CO)NC(=O)[C@H](C)NC(=O)CC[C@H](NC(=O)CCCCCCCCCCCCCCCCCCC(=O)O)C(=O)O)[C@@H](C)O)[C@@H](C)O)C(=O)N[C@@H](CC(C)C)C(=O)N1CCC[C@H]1C(=O)N1CCC[C@H]1C(=O)N[C@H](C(=O)N[C@@H](CC(N)=O)C(=O)N[C@H](C(=O)NCC(=O)N[C@@H](CO)C(=O)N[C@@H](CC(N)=O)C(=O)N[C@H](C(=O)N1C[C@H](O)C[C@H]1C(N)=O)[C@@H](C)O)C(C)C)[C@@H](C)O` (stereo partly shown) [M55] ({C20 diacid-γGlu}-ASQLSTAATQRLADFLRHSSN[ξαMeN]LKPILPPTNVGSNT[Hyp]-NH2), the Relative activity is recorded as 233%.

In the case of `CC[C@H](C)[C@H](NC(=O)[C@@H]1CCCN1C(=O)[C@H](CCCCN)NC(=O)[C@H](CC(C)C)NC(=O)[C@H](CC(N)=O)NC(=O)[C@H](CC(N)=O)NC(=O)[C@H](CO)NC(=O)[C@H](CO)NC(=O)[C@H](Cc1c[nH]cn1)NC(=O)[C@H](CCCNC(=N)N)NC(=O)[C@H](CC(C)C)NC(=O)[C@H](Cc1ccccc1)NC(=O)[C@H](CC(=O)O)NC(=O)[C@H](C)NC(=O)[C@H](CC(C)C)NC(=O)[C@H](CCCNC(=N)N)NC(=O)CNC(=O)[C@H](CC(C)C)NC(=O)[C@H](C)NC(=O)[C@H](C)NC(=O)[C@@H](NC(=O)[C@H](CO)NC(=O)[C@H](CC(C)C)NC(=O)[C@H](CCC(=O)O)NC(=O)[C@H](CO)NC(=O)[C@H](C)NC(=O)CC[C@H](NC(=O)CCCCCCCCCCCCCCCCCCC(=O)O)C(=O)O)[C@@H](C)O)C(=O)N[C@@H](CC(C)C)C(=O)N1CCC[C@H]1C(=O)N1CCC[C@H]1C(=O)N[C@H](C(=O)N[C@@H](CC(N)=O)C(=O)N[C@H](C(=O)NCC(=O)N[C@@H](CO)C(=O)N[C@@H](CC(N)=O)C(=O)N[C@H](C(=O)N1C[C@H](O)C[C@H]1C(N)=O)[C@@H](C)O)C(C)C)[C@@H](C)O` [M1] ({C20 diacid-γGlu}-ASELSTAALGRLADFLRHSSNNLKPILPPTNVGSNT[Hyp]-NH2), the Relative activity was 49% and the midpoint of the response, the EC50, lay at 0.053 nM.

Usually EC50 stands for the concentration giving half of the maximal effect. A high value points to a need for much substance.
